Marks after values point to notes of the source that are not given here.

The test system of this assay is adult patients with moderate to severe chronic plaque psoriasis. Briefly: PASI response and loss of adequate response, REVEAL 52-week Phase III trial. The assay is classed as in vivo, human. The conditions noted are these: for PASI 100 Response Rates, % Patients: n = 814, ITT, NRI; for Mean Percentage PASI Improvement During Period B: relative to baseline, patients randomized to adalimumab who entered Period B, as observed; for patients with loss of adequate response: Week 33 PASI 75 responders re-randomized to continue adalimumab in period C, by Week 52. From the text: The main inclusion criteria for this study included a clinical diagnosis of psoriasis for ≧6 months and affected body surface area (BSA)≧10% and PASI≧12. The main exclusion criteria included prior use of systemic or biologic anti-TNF therapy. The washout period included two weeks for topical agents and UVB, 4 weeks for PUVA and non-biologic systemic therapies, and 12 weeks for all biologic therapies. The two co-primary endpoints were: • Percentage of patients achieving PASI≧75 at Week 16 • Percentage of patients, among Week 33 PASI≧75 responders, losing an adequate response after Week 33, characterized by: • PASI<50 (relative to baseline) and • At least a 6 point increase in PASI
Period A was double-blind, placebo-controlled, and lasted from weeks 0-16. […] At Week 16 patients who achieved ≧PASI 75 improvement continued into Period B, while those patients having <PASI 75 improvement entered the open label extension (OLE) study (FIG. 7).
Period B was open-label and lasted from Weeks 17-33. […] Patients who achieved ≧PASI 75 response at Week 33 entered Period C.
Period C was a double-blind, placebo-controlled which was held from weeks 34-52.
Various analytical methods were used in the study. Intention-to-treat (ITT) analyses were performed for all randomized patients in Periods A and C. […] Week 24 results from NRI analysis include pooled efficacy outcomes from OLE and Period B. After Week 24, non-overlapping OLE and Period B study visits prevent complete pooling of efficacy outcomes. Continuous variables were analyzed as observed during Period B
The REVEAL study had two independent primary endpoints. The first endpoint was the proportion of patients achieving 75 percent improvement in skin clearance after 16 weeks. The second endpoint was the proportion of patients who lost adequate response through week 52 after stopping treatment with HUMIRA at week 33. Signs of psoriasis were evaluated using the Psoriasis Area and Severity Index (PASI), among other measures. […] At week 52, the start of the OLE period, patients randomized at week 33, as well as patients originally in the placebo group at week 0, were able to enter the OLE period.

Turning to “Adalimumab: a human anti-TNF mAb, described in U.S. Pat. No. 6,090,382 as D2E7 (HUMIRA, Abbott Laboratories)”, the “patients with loss of adequate response” value was 4.9* %. Moreover, the “PASI 100 Response Rates, % Patients” value (Week 4, double-blind) is reported as 0.9%. Moreover, the “PASI 100 Response Rates, % Patients” value (Week 8, double-blind) was 7.1* %. Further, the “PASI 100 Response Rates, % Patients” value (Week 12, double-blind) is 14.4* %. Moreover, the “PASI 100 Response Rates, % Patients” value (Week 16, double-blind) is given as 20* %. Also, for the setting “Week 16”, the “Mean Percentage PASI Improvement During Period B” value came to 91.9%. In addition, the “PASI 100 Response Rates, % Patients” value (Week 24, open-label, pooled Period B and OLE) is 22.5* %. Further, the “Mean Percentage PASI Improvement During Period B” value (Week 24) was determined as 91.2%. Where the note is “Week 33”, the “Mean Percentage PASI Improvement During Period B” value amounted to 89.3%. The “patients with loss of adequate response” value (listed as adalimumab) came out at 5%.

The values above are taken from patent US9605064B2, “Methods and compositions for treatment of skin disorders” (AbbVie Biotechnology Ltd, priority 2006, dated 2017).
